Measurements from patent publication US20250280827A1, “An antifungal composition comprising natamycin and at least one insecticide” (priority 2021, published 2025).

Key:
Fusarium culmorum = test: Antifungal effect against Fusarium culmorum on PDA petri dishes (fungal growth area, Colby synergy); format: cell-based; conditions: natamycin-insecticide 0.5-0 ppm
Text: The Colby equation (Colby, 1967. Weeds 15:20-22) calculates the expected antifungal activity (E in %) of a combination comprising more than one active ingredients:
(§1) wherein X and Y are the observed antifungal activities (in %) of the individual active ingredients x and y, respectively. If the observed antifungal activity (O in %) of the combination exceeds the expected antifungal activity (E in %) of the combination and the synergy factor O/E is thus >1.0, the combined application of the active ingredients leads to a synergistic antifungal effect.
Agar medium was prepared by mixing in a 100 ml Duran bottle 3.9 g of potato dextrose agar (PDA) from Carl-Roth (Carl-Roth GmbH+Co. KG, Karlsruhe, Germany) with 100 ml deionized water and autoclaving the Duran bottle at 120° C. for 15 minutes. After autoclaving, the solution was cooled by putting it in a 48° C. oven for about two hours. Afterward the semi-liquid PDA solution was carefully mixed with natamycin and/or insecticide dosages as specified in Table 5 showing the interaction results on petri dishes. The medium in the Duran bottle was divided over 5 petri dishes (90×15 mm), 20 ml per petri dish by using 25 ml serological pipets (ROTILABO®; Carl-Roth). Each natamycin and/or insecticide treatment was performed in fivefold.
Fungal spore suspensions were prepared by drenching a fully grown petri dish with sterile water. The fungus was scraped off and filtered through a Miracloth (pore size: 22-25 μm) (Merck KGaA, Darmstadt, Germany; catalogue number: 475855). The number of spores were counted with a hemocytometer and fungal suspension was adjusted to 10^6 spores per ml. Afterward, 5 μl of prepared spore suspension was pipetted on the center of the agar plate. The plates were incubated at 25° C. Measurement of the fungal growth was done using callipers at different time points. Assessment of the infection area was 6 days after inoculation.
The insecticide levels and the period after which the assessments were made are presented as specified for the different insecticides are presented in Table 5 below. Synergistic calculation was done using the Colby equation. Experiment was performed in 5-fold.
The experiments were performed as described in Example 3. Assessment of the infection area was 6 days after inoculation. Experiment was performed in 5-fold.
The experiments were performed as described in Example 3. The product KARATE ZEON® of company Syngenta containing the active ingredient lambda-cyhalothrin belonging to IRAC Group 3 was tested. Assessment of the infection area was 3 days after inoculation. Experiment was performed in 5-fold.

Colletotrichum spp. = test: Antifungal effect against Colletotrichum infection on wounded skin of pepper fruits (Colby synergy); format: in vivo
Text: as §1, with “effect. […]” for “effect.”
For the treatment, 5 wounds per pepper side were done as previously described. In addition, one wound was done as negative control. Depending on the number of sides of the pepper, 3 to 4 treatments were done per paprika. Per wound 10 μl of treatment was placed on the wound. The treatments were let to dry in a down flow cabinet for about 30 minutes. After drying 5 μl spore suspension at a concentration of 10^7 spores per ml were placed on the wounds. The fungus was isolated from Colletotrichum-infected plant material and identified using techniques known to the person skilled in the art. The pepper were placed as described previously in a transparent container, with the difference that the containers were then placed in a transparent plastic zipper bag. The bags with peppers were placed at room temperature and in the dark for two days. After that the size of the lesions were measured. Assessment of the infection area was 4 days after inoculation. Experiment was performed in 5-fold.
(§2) The fungus was isolated from Colletotrichum-infected plant material and identified using techniques known to the person skilled in the art. Assessment of the infection area was performed 5 days after inoculation. Experiment was performed in 5-fold.
as §2, with “The active ingredient imidacloprid was formulated as described in Table 2. Imidacloprid belonging to IRAC Group 4. The” for “The”
The fungus was isolated from Colletotrichum-infected plant material and identified using techniques known to the person skilled in the art. Assessment of the efficacy was 5 days after inoculation. Experiment was performed in 5-fold.
The fungus was isolated from Colletotrichum-infected plant material and identified using techniques known to the person skilled in the art. Assessment of the infection area was performed 6 days after inoculation. Experiment was performed in 5-fold.
The fungus was isolated from Colletotrichum-infected plant material and identified using techniques known to the person skilled in the art. Assessment of the infection area was performed 4 days after inoculation. Experiment was performed in 5-fold.

[1] = 3 days after inoculation, Table 11
[2] = 6 days after inoculation, Table 6
[3] = natamycin-insecticide 1:0 ppm, 4 days after inoculation, Table 13
[4] = natamycin-insecticide 1:0 ppm, 5 days after inoculation, Table 15
[5] = natamycin-insecticide 1:0 ppm, 5 days after inoculation, Table 16
[6] = natamycin-insecticide 1:0 ppm, 5 days after inoculation, Table 17
[7] = natamycin:abamectin 1:0 ppm, 4 days after inoculation, Table 20
[8] = natamycin:fipronil 1:0 ppm, 6 days after inoculation, Table 19

C[C@@H]1C/C=C/C=C/C=C/C=C/[C@H](O[C@@H]2O[C@H](C)[C@@H](O)[C@H](N)[C@@H]2O)C[C@@H]2O[C@](O)(C[C@@H](O)C[C@H]3O[C@@H]3/C=C/C(=O)O1)C[C@H](O)[C@H]2C(=O)O [natamycin]
Avg infected area (Fusarium culmorum; [1]): 297.7 mm2 | Observed antifungal activity (Fusarium culmorum; [1]): 17.9% | Avg infected area (Fusarium culmorum; [2]): 810.2 mm2 | Observed antifungal activity (Fusarium culmorum; [2]): 18.8% | Avg infected area (Colletotrichum spp.; [3]): 10.6 mm2 | Observed antifungal activity (Colletotrichum spp.; [3]): 33.8% | Avg infected area (Colletotrichum spp.; [4]): 30.2 mm2 | Observed antifungal activity (Colletotrichum spp.; [4]): 28.6% | Avg infected area (Colletotrichum spp.; [5]): 30.2 mm2 | Observed antifungal activity (Colletotrichum spp.; [5]): 28.6% | Avg infected area (Colletotrichum spp.; [6]): 22.4 mm2 | Observed antifungal activity (Colletotrichum spp.; [6]): 59.5% | Avg infected area (Colletotrichum spp.; [7]): 13.5 mm2 | Observed antifungal activity (Colletotrichum spp.; [7]): 39.8% | Avg infected area (Colletotrichum spp.; [8]): 24.7 mm^2 | Observed antifungal activity (Colletotrichum spp.; [8]): 50.7%
